{"source": "patent US20150322051A1", "about": "“Macrocyclic picolinamides as fungicides” (Dow AgroSciences LLC, priority 2014, published 2015)", "assay_type_in_all_cases": "in vivo", "key": {"[1]": {"test_system": "Venturia inaequalis (VENTIN)", "assay": "Apple scab (VENTIN) whole-plant fungicidal test", "conditions": "1 Day Protectant"}, "[2]": {"test_system": "Glomerella lagenarium; anamorph: Colletotrichum lagenarium (COLLLA)", "assay": "Cucumber anthracnose (COLLLA) whole-plant fungicidal test", "conditions": "1 Day Protectant", "description": "(§1) All fungicides were evaluated using the aforementioned method for their activity vs. all target diseases, unless stated otherwise. Wheat leaf blotch and brown rust activity were also evaluated using track spray applications, in which case the fungicides were formulated as EC formulations, containing 0.1% Trycol 5941 in the spray solutions. Wheat plants (variety Yuma) were grown from seed in a greenhouse in 50% mineral soil/50% soil-less Metro mix until the first leaf was fully emerged, with 7-10 seedlings per pot. These plants were inoculated with an aqueous spore suspension of Septoria tritici either prior to or after fungicide treatments. After inoculation the plants were kept in 100% relative humidity (one day in a dark dew chamber followed by two to three days in a lighted dew chamber at 20° C.) to permit spores to germinate and infect the leaf. The plants were then transferred to a greenhouse set at 20° C. for disease to develop. When disease symptoms were fully expressed on the 1st leaves of untreated plants, infection levels were assessed on a scale of 0 to 100 percent disease severity. Percent disease control was calculated using the ratio of disease severity on treated plants relative to untreated plants. Cucumber seedlings (variety Bush Pickle) were propagated in soil-less Metro mix, with each pot having one plant, and used in the test when 12 to 14 days old. […]"}, "[3]": {"test_system": "Cercospora beticola (CERCBE)", "assay": "Leaf spot of sugar beets (CERCBE) whole-plant fungicidal test", "conditions": "sugar beet, 1 Day Protectant", "description": "as §1, with “Sugar beet plants” for “Cucumber seedlings”, “HH88)” for “Bush Pickle)”, “grown” for “propagated”, “mix” for “mix, with each pot having one plant,”, “trimmed regularly” for “used in the test when 12”, “maintain a uniform plant size prior to test.” for “14 days old.”"}, "[4]": {"test_system": "Mycosphaerella graminicola; anamorph: Septoria tritici (SEPTTR)", "assay": "Leaf blotch of wheat (SEPTTR) whole-plant fungicidal test", "conditions": "Zymoseptoria tritici, topical, low volume (track spray) application, 121.5 g/H"}, "[5]": {"test_system": "Alternaria solani (ALTESO)", "assay": "Tomato early blight (ALTESO) whole-plant fungicidal test", "conditions": "1 Day Protectant", "description": "as §1, with “Tomato plants” for “Cucumber seedlings”, “Outdoor Girl)” for “Bush Pickle)”, “used” for “used in the test”"}, "[6]": {"test_system": "Uncinula necator (UNCINE)", "assay": "Grape powdery mildew (UNCINE) whole-plant fungicidal test", "conditions": "1 Day Protectant"}, "[7]": {"test_system": "Leptosphaeria nodorum (LEPTNO)", "assay": "Wheat glume blotch (LEPTNO) whole-plant fungicidal test", "conditions": "1 Day Protectant"}}, "note": "Like-named read-outs stand apart in the source and are kept apart here.", "data": [{"smiles": "CCCC[C@@H]1[C@@H](Cc2ccc(C(F)(F)F)cc2)CCC[C@H](NC(=O)c2nccc(OC)c2OCOC(C)=O)C(=O)O[C@H]1C", "note": "[Compound 3]", "values": [{"measurement": "Disease Control at 100 ppm VENTIN 1DP", "setting": "[1]", "value": "A (>70)"}, {"measurement": "Disease Control at 100 ppm COLLLA 1DP", "setting": "[2]", "value": "A (>70)"}, {"measurement": "Disease Control at 100 ppm CERCBE 1DP", "setting": "[3]", "value": "B (≦70)"}, {"measurement": "pest or weed control at 121.5 g/ha", "setting": "[4]; 24 h, 1 Day Protectant, read-out: Low Volume activity at 121.5 g/H SEPTTR 1DP (% disease control rating)", "value": "> 70", "unit": "%"}, {"measurement": "pest or weed control at 121.5 g/ha", "setting": "[4]; 72 h, 3 Day Curative, read-out: Low Volume activity at 121.5 g/H SEPTTR 3DC (% disease control rating)", "value": "> 70", "unit": "%"}, {"measurement": "Disease Control at 100 ppm ALTESO 1DP", "setting": "[5]", "value": "A (>70)"}, {"measurement": "Disease Control at 100 ppm UNCINE 1DP", "setting": "[6]", "value": "A (>70)"}, {"measurement": "Disease Control at 100 ppm LEPTNO 1DP", "setting": "[7]", "value": "A (>70)"}]}]}
